Experimental findings from US5962314A, “Calcium receptor-active molecules” (priority 1997, dated 1999) are described below.

Test [1] has as its target T1, human parathyroid cell calcium receptor (Homo sapiens, UniProt P41180).
T1 construct: T7 cRNA injected into Xenopus oocytes
T1 sequence (P41180 with tags, fused parts or gaps INS536PLTFVLSVLQ/Q926R/E1011Q): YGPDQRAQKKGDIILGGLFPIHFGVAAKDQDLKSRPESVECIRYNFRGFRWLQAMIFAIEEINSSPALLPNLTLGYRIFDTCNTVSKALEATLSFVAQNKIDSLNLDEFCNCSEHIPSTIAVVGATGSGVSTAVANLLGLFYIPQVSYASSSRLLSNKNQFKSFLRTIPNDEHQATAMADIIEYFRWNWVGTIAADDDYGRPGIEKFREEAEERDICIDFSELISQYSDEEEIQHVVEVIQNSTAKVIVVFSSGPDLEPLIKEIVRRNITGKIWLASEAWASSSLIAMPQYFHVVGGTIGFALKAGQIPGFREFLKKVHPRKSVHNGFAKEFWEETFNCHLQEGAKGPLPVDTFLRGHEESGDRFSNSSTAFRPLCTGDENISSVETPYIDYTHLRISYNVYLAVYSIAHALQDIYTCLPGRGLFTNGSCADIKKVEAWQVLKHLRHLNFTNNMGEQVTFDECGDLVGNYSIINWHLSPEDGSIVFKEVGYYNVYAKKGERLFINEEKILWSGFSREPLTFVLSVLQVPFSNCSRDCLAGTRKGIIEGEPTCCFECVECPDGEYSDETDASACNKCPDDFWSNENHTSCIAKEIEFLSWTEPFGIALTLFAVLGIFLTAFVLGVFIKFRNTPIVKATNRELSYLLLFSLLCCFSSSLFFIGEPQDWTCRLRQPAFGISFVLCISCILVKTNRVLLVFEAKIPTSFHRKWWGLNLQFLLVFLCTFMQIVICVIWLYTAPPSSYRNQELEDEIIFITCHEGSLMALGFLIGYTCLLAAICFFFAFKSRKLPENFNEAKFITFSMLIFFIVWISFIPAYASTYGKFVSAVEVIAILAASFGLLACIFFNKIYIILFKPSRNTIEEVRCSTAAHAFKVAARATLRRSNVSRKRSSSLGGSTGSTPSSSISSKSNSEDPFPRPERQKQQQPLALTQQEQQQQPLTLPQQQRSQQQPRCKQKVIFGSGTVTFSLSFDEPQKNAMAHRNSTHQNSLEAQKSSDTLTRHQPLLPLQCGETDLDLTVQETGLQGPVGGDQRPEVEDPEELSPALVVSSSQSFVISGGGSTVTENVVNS
Nature of the test: Cl- current in Xenopus oocytes expressing human parathyroid cell calcium receptor. In kind it is cell-based. Particulars: for effect on Cl- current: 3 to 30 μM, 0.3 mM extracellular Ca2+. As to the method:
Representative cDNA inserts for both size classes were subcloned into the plasmid vector pBluescript SK. Linearization followed by in vitro transcription using T7 RNA polymerase produced cRNA transcripts. The cRNA transcripts were injected into Xenopus oocytes (150 ng/μl RNA; 50 nl/oocyte) for functional analysis. Following incubation periods of 2-4 days, the oocytes were assayed for the presence of functional calcium receptors. Both clone types gave rise to functional calcium receptors as assessed by the stimulation of calcium-activated chloride currents upon addition of appropriate calcium receptor agonists. […] Thus, both clones encode a functional, human parathyroid cell calcium receptor.
Xenopus oocytes were injected with pHuPCaR 5.2, the 5.2 Kb cDNA encoding a parathyroid cell calcium receptor derived from a human parathyroid cell adenoma. (See Example 27.) After two to three days, Cl^- currents were measured in the oocytes using a two-electrode voltage clamp.

The subject of a further test is PTH. The test can be described thus: PTH levels in rats. It counts as in vivo, rat. The following applies: NPS R-568 oral, rats. From the text: The fall in blood Ca^2+ at this time was paralleled by a proportional fall in the levels of blood total calcium.
The test system of the next test is calcitonin. The test can be described thus: calcitonin levels in rats. It counts as in vivo, rat. The following applies: NPS R-568 p.o.
In a further test the test system is serum ionized calcium. The test can be described thus: serum ionized Ca2+ in parathyroidectomized rats. In kind it is in vivo, rat. The following applies: NPS R-467 10 mg/kg i.p., 6 hours; NPS R-568 oral. From the text: To determine the primary target tissue upon which NPS R-467 acts to cause a hypocalcemic response, the parathyroid glands in rats were surgically removed. Animals receiving a total parathyroidectomy become hypocalcemic and are largely dependent upon dietary calcium to maintain serum Ca^2+ homeostasis.

Test [2] concerns serum parathyroid hormone. The test can be described thus: serum PTH in a human. In kind it is in vivo. The following applies: single oral doses. From the text:
(§1) A range of single oral doses was used to assess safety, tolerance, and changes in primary hyperparathyroidism markers (e.g., plasma concentrations of parathyroid hormone and ionized serum calcium) and of serum calcitonin.

In a further test the test system is serum calcitonin. Nature of the test: serum calcitonin in a human. It counts as in vivo. The following applies: single oral doses studied.
Source text: as §1

For test [3], the system named is osteoclast calcium receptor. Nature of the test: [Ca2+]i in indo-1-loaded rat osteoclasts. In kind it is cell-based.
The subject of a further test is bovine parathyroid cells. Nature of the test: PTH secretion from bovine parathyroid cells. In kind it is cell-based. Particulars: bovine parathyroid cells.
The next test has as its system human parathyroid cells. Nature of the test: PTH secretion from human parathyroid cells. Particulars: human (adenoma) parathyroid cells. In kind it is cell-based. As to the method: PTH secretion was measured by first suspending cells in PCB containing 0.5 mM CaCl2 and 0.1% BSA.
For human cells, a commercially available radioimmunoassay kit (INS-PTH; Nichols Institute, Los Angeles, Calif.) which recognizes intact and N-terminal human PTH was used because GW-1 antibody recognizes human PTH poorly.

For the next test, the system named is cyclic AMP. In kind it is cell-based, bovine.

Entries after “also recorded” stand apart in the source; their conditions may differ. Like-named read-outs stand apart in the source and are kept apart here.

Description for cyclic AMP: Cells were incubated as above for PTH secretion studies and at the end of the incubation, a 0.15-ml sample was taken and transferred to 0.85 ml of hot (70° C.) water and heated at this temperature for 5-10 minutes. The tubes were subsequently frozen and thawed several times and the cellular debris sedimented by centrifugation. Portions of the supernatant were acetylated and cyclic AMP concentrations determined by radioimmunoassay.
Each value is the mean±SEM of three experiments.

`NCCCNCCCCNCCCNCCCNCCCNC(=O)Cc1c[nH]c2ccccc12` [NPS 019]: in [1], the “effect on Cl- current” value is given as “evoked increases in the Cl^-” and the “response in absence of extracellular Ca2+” value is given as “persisted”.
Consider `COc1cccc([C@@H](C)NCCCc2ccccc2Cl)c1` [NPS R-568, (R)-(+)-N-[3-(2-chlorophenyl)propyl]-α-methyl-3-methoxybenzylamine], for which, in test [1], the “activation of oocyte-expressed receptor” value is “activated the oocyte-expressed receptor at about the same concentrations”, the “effect on extracellular Ca2+ concentration-response curve” value was “shifted the concentration-response curve to the left”, the “effect on Cl- current” value is “evoked increases in the Cl^-” and the “response in absence of extracellular Ca2+” value is “abolished”. Also, in the test on PTH, the “effect on PTH, oral” value is “rapid, dose-dependent decrease in the plasma levels of PTH; also recorded: decreases in the levels of serum PTH”. For the same compound, the “effect on calcitonin, oral” value in the test with calcitonin is “increase in calcitonin”. In addition, the “effect on serum ionized Ca2+ in parathyroidectomized rats” value in the test with serum ionized calcium is “fails to elicit a hypocalcemic response”. The “effect on plasma PTH in human” value in test [2] was “transient dose-dependent decrease in plasma PTH concentration”. The “effect on serum calcitonin in human” value with serum calcitonin is “no apparent change in serum calcitonin”.
Consider `NC[C@@H]1O[C@H](O[C@H]2[C@@H](O)[C@H](O[C@@H]3[C@@H](O)[C@H](N)C[C@H](N)[C@H]3O[C@H]3O[C@H](CN)[C@@H](O)[C@H](O)[C@H]3N)O[C@@H]2CO)[C@H](N)[C@@H](O)[C@@H]1O` [Neomycin], for which the “effect on [Ca2+]i in osteoclasts” value in test [3] is “failed to evoke any increase in [Ca^2+ ]i; also recorded: Neither neomycin (10 mM) nor spermine (10 or 20 mM) caused increases in [Ca^2+ ]i; also recorded: fail to affect the calcium receptors on C-cells or osteoclasts”; in test [3] (listed as neomycin), “none of these caused any large increase in [Ca^2+ ]i”; in [3] (listed as neomycin B) it was “fail to evoke increases in [Ca^2+ ]i”. Moreover, in test [3], the “effect on response to extracellular Ca2+ in osteoclasts” value is “did not block the increase in [Ca^2+ ]i”. Moreover, the entries for the “effect on PTH secretion” value in the test on bovine parathyroid cells, in the test on human parathyroid cells (listed as Neomycin B) and in the test with human parathyroid cells (listed as neomycin B) were “inhibited PTH secretion to the same extent as extracellular Ca^2+”, “inhibited PTH secretion from human parathyroid cells” and “inhibit PTH secretion”, respectively. For the same compound, the “effect on isoproterenol-induced increases in cyclic AMP” value with cyclic AMP is reported as “depressed isoproterenol-induced increases in cyclic AMP”.
